Results as given in patent US20180282310A1, “FORMS AND COMPOSITIONS OF BIARYL INHIBITORS OF BRUTON'S TYROSINE KINASE” (BIOGEN MA INC., priority 2015, published 2018).
In brackets after ≈: the same amount, converted by molar mass.

Experiments:
Format in all cases: physicochemical
[1] = Estimated solubility in solvents at room temperature (stepwise solvent addition); conditions: for solubility: thermodynamic from solid
Protocol: Approximately 2 mg solids were added into a 3-mL glass vial. Solvents in Table 39 were then added step wise (100 μL per step) into the vials until the solids were dissolved or a total volume of 2 mL was reached. Results summarized in Table 39 were used to guide the solvent selection in polymorph screening. […] Approximately 2 mg solids were added into a 3-mL glass vial. Solvents in Table 4-6 were then added stepwise (100 μL per step) into the vials until the solids were dissolved or a total volume of 2 mL was reached. Results are summarized in Table 57, which were used to guide the solvent selection in polymorph screening.

[2] = Physical form stability on storage or drying (XRPD/TGA)
Source text: A sample of Compound 2 Type B reference was generated via evaporation of a solution in MeOH/MIBK (v/v, 4:1) at room temperature. […] As the sample was still wet after form transformation, Compound 2 Type B is suspected to be a metastable form at ambient conditions.

[3] = Dynamic vapor sorption (DVS): hygroscopicity and physical stability under humidity
Protocol: Dynamic Vapor Sorption (DVS) was measured via a SMS (Surface Measurement Systems) DVS Intrinsic.
To evaluate the hygroscopicity and physical stability of Compound 2 Type A under increased humidity, DVS isotherm data was collected at 25° C. with the starting sample pre-dried at 0% RH until a mass change rate lower than 0.002%/min.

Cc1cc(-c2ccnc(Nc3cnn(C)c3)n2)ccc1CNC(=O)N1CC(OC(C)C)C1 [Compound 1 Type A, 3-isopropoxy-N-(2-methyl-4-(2-((1-methyl-1H-pyrazol-4-yl)amino)pyrimidin-4-yl)benzyl)azetidine-1-carboxamide]
solubility ([1]; organic solvent or mixture, 1,4-Dioxane, room temperature): 3500 to 4200 µg/mL (≈ 8.04 to 9.64 mM)
solubility ([1]; organic solvent or mixture, 2-MeTHF, room temperature): 2200 to 2400 µg/mL (≈ 5.05 to 5.51 mM)
solubility ([1]; organic solvent or mixture, ACN, room temperature): 2300 to 2600 µg/mL (≈ 5.28 to 5.97 mM)
solubility ([1]; organic solvent or mixture, Acetic acid, room temperature): > 54000 µg/mL
solubility ([1]; organic solvent or mixture, Acetone, room temperature): 4600 to 5800 µg/mL (≈ 10.6 to 13.3 mM)
solubility ([1]; organic solvent or mixture, CHCl3, room temperature): 20000 to 40000 µg/mL (≈ 45.9 to 91.8 mM)
solubility ([1]; organic solvent or mixture, DCM, room temperature): 12000 to 24000 µg/mL (≈ 27.6 to 55.1 mM)
solubility ([1]; organic solvent or mixture, DMAc, room temperature): > 54000 µg/mL
solubility ([1]; organic solvent or mixture, DMSO, room temperature): > 38000 µg/mL
solubility ([1]; organic solvent or mixture, EtOAc, room temperature): 1400 to 1500 µg/mL (≈ 3.21 to 3.44 mM)
solubility ([1]; organic solvent or mixture, EtOH, room temperature): 4400 to 5500 µg/mL (≈ 10.1 to 12.6 mM)
solubility ([1]; organic solvent or mixture, IPA, room temperature): 3000 to 3500 µg/mL (≈ 6.89 to 8.04 mM)
solubility ([1]; organic solvent or mixture, IPAc, room temperature): < 1500 µg/mL
solubility ([1]; organic solvent or mixture, MIBK, room temperature): < 1400 µg/mL
solubility ([1]; organic solvent or mixture, MTBE, room temperature): < 1300 µg/mL
solubility ([1]; organic solvent or mixture, MeOH, room temperature): 12500 to 25000 µg/mL (≈ 28.7 to 57.4 mM)
solubility ([1]; organic solvent or mixture, NMP, room temperature): > 56000 µg/mL
solubility ([1]; organic solvent or mixture, THF, room temperature): 6000 to 9000 µg/mL (≈ 13.8 to 20.7 mM)
solubility ([1]; organic solvent or mixture, Toluene, room temperature): < 900 µg/mL
solubility ([1]; organic solvent or mixture, n-Heptane, room temperature): < 1500 µg/mL
solubility ([1]; water, H2O, room temperature): < 1100 µg/mL

Cc1cc(-c2ccnc(Nc3cnn(C)c3)n2)ccc1CNC(=O)N1CC(OC(C)C)C1 [Compound 1 Type B, 3-isopropoxy-N-(2-methyl-4-(2-((1-methyl-1H-pyrazol-4-yl)amino)pyrimidin-4-yl)benzyl)azetidine-1-carboxamide]
Physical stability on vacuum drying ([2]; vacuum dried at 80° C. for 15 hrs): physically unstable
Form change after the DVS test (XRPD) ([3]; 25° C.): no form change
Hygroscopicity (DVS) ([3]; 25° C.): slightly hygroscopic
Behaviour at low humidity (DVS) ([3]; relative humidity (RH) less than 10%, 25° C.): tends to dehydrate

Cc1cc(-c2ccnc(Nc3cnn(C)c3)n2)ccc1CNC(=O)N1CC(OC(C)C)C1 [Compound 1 Type E, 3-isopropoxy-N-(2-methyl-4-(2-((1-methyl-1H-pyrazol-4-yl)amino)pyrimidin-4-yl)benzyl)azetidine-1-carboxamide]
Solid form after storage (XRPD) ([2]; ambient conditions for 2 days): conformed to Type B

Cc1cc(-c2ccnc(Nc3cnn(C)c3)n2)ccc1CNC(=O)N1CC(OC(C)C)C1.Cl [Compound 2 Type A]
solubility ([1]; 20 °C, organic solvent or mixture, 1,4-dioxane, room temperature (RT, 20±3° C.)): < 1000 µg/mL
solubility ([1]; 20 °C, organic solvent or mixture, 2-MeTHF, room temperature (RT, 20±3° C.)): < 1000 µg/mL
solubility ([1]; 20 °C, organic solvent or mixture, ACN, room temperature (RT, 20±3° C.)): < 1000 µg/mL
solubility ([1]; 20 °C, organic solvent or mixture, Acetone, room temperature (RT, 20±3° C.)): < 900 µg/mL
solubility ([1]; 20 °C, organic solvent or mixture, CHCl3, room temperature (RT, 20±3° C.)): < 1100 µg/mL
solubility ([1]; 20 °C, organic solvent or mixture, DCM, room temperature (RT, 20±3° C.)): < 1100 µg/mL
solubility ([1]; 20 °C, organic solvent or mixture, DMAc, room temperature (RT, 20±3° C.)): 22000 to 44000 µg/mL
solubility ([1]; 20 °C, organic solvent or mixture, DMSO, room temperature (RT, 20±3° C.)): 14000 to 21000 µg/mL
solubility ([1]; 20 °C, organic solvent or mixture, EtOAc, room temperature (RT, 20±3° C.)): < 1000 µg/mL
solubility ([1]; 20 °C, organic solvent or mixture, EtOH, room temperature (RT, 20±3° C.)): 4400 to 5500 µg/mL
solubility ([1]; 20 °C, organic solvent or mixture, IPA, room temperature (RT, 20±3° C.)): 1700 to 1800 µg/mL
solubility ([1]; 20 °C, organic solvent or mixture, IPAc, room temperature (RT, 20±3° C.)): < 1200 µg/mL
solubility ([1]; 20 °C, organic solvent or mixture, MIBK, room temperature (RT, 20±3° C.)): < 1000 µg/mL
solubility ([1]; 20 °C, organic solvent or mixture, MTBE, room temperature (RT, 20±3° C.)): < 1000 µg/mL
solubility ([1]; 20 °C, organic solvent or mixture, MeOH, room temperature (RT, 20±3° C.)): > 34000 µg/mL
solubility ([1]; 20 °C, organic solvent or mixture, NMP, room temperature (RT, 20±3° C.)): 14700 to 22000 µg/mL
solubility ([1]; 20 °C, organic solvent or mixture, THF, room temperature (RT, 20±3° C.)): < 900 µg/mL
solubility ([1]; 20 °C, organic solvent or mixture, Toluene, room temperature (RT, 20±3° C.)): < 1100 µg/mL
solubility ([1]; 20 °C, organic solvent or mixture, n-heptane, room temperature (RT, 20±3° C.)): < 900 µg/mL
Behaviour in the solubility test (stability of the salt) ([1]; H2O, room temperature, colour change of solids from orange to faint yellow): N/A: disproportionation occurred along with obvious color change of solids from orange to faint yellow.
Form change after the DVS test (XRPD) ([3]; 25° C.): no form change
Hygroscopicity (DVS) ([3]; 25° C.): slightly hygroscopic
Water uptake (DVS) ([3]; 25° C./80% RH, sample pre-dried at 0% RH): 1.0%

Cc1cc(-c2ccnc(Nc3cnn(C)c3)n2)ccc1CNC(=O)N1CC(OC(C)C)C1.Cl [Compound 2 Type B]
Solid form change during air drying (XRPD) ([2]; air drying at ambient conditions): converted into Compound 2 Type A
